In paper PMC4859512, “Polyamino-Isoprenic Derivatives Block Intrinsic Resistance of P. aeruginosa to Doxycycline and Chloramphenicol In Vitro” (PLoS ONE, 2016):
Values joined by “and” are separate entries in the source; they are usually repeats but may differ in a detail not shown here. Identical values can stand only once.

What was measured:
Format in all cases: cell-based, Pseudomonas aeruginosa
P. aeruginosa PA01 (wt) = experiment: Antibiotic susceptibility testing (broth micro-dilution MIC), strain PA01
[1] = test system: P. aeruginosa PT629 (Mex AB overproducer); experiment: Antibiotic susceptibility testing (broth micro-dilution MIC), strain PT629
[2] = test system: P. aeruginosa PA0-7H (Mex EF overproducer); experiment: Antibiotic susceptibility testing (broth micro-dilution MIC), strain PA0-7H
[3] = test system: efflux of 1,2'-dinaphthylamine in strain PA01; experiment: Real-time efflux assay (1,2'-dinaphthylamine, glucose-triggered)
Description: The experiments were performed as previously described with slight modifications. For each strain, 20 mL of MHII was inoculated with a single colony from a fresh plate and grown at 37°C to the stationary phase. […] They were then loaded over night with the dye 1,2’-dinaphthylamine (TCI-Europe SA, Zwijndrecht, Belgium) at a final concentration of 32 μM, in the presence of 5 μM CCCP. […] In a 96-well Greiner black microplate (Greiner, Courtaboeuf, France), a gradient of inhibitor (when used) was prepared in PPB, and bacteria were added (100 μL per well). The fluorescence of the cell suspension, was monitored each 22 sec during 1200 sec on an Infinite M200 microplate reader (Tecan; excitation wavelength 370 nm and emission wavelength 420 nm). In order to trigger the transport, glucose (50 mM final concentration) is added at 200 sec. The maximum efficacy of the efflux is the difference between the value obtained without and with glucose addition after 1200 sec. For each compound, the efficiency of efflux inhibition is calculated as the difference between the maximum efficacy of transport and the residual transport obtained at various concentrations of the compound.

[4] = Pseudomonas aeruginosa, read-out: Minimal Inhibitory Concentration

SMILES: CC(C)=CCCC(C)=CCCC(C)=CCNCCCNCCCCNCCCN [Compound 3]
- MIC of Amikacin in the presence of the compound (P. aeruginosa PA01 (wt); PA01, compound 10µM): 64 µg/mL
- MIC of Ceftazidime in the presence of the compound (P. aeruginosa PA01 (wt); PA01, compound 10µM): 2 µg/mL
- MIC of Ciprofloxacin in the presence of the compound (P. aeruginosa PA01 (wt); PA01, compound 10µM): 0.125 µg/mL
- MIC of Ticarcillin in the presence of the compound (P. aeruginosa PA01 (wt); PA01, compound 10µM): 16 µg/mL
- MIC (P. aeruginosa PA01 (wt); [4]): 25 µg/mL and 62.5 µM
- MIC of Amikacin in the presence of the compound ([1]; PT629, compound 10µM): 64 µg/mL
- MIC of Ceftazidime in the presence of the compound ([1]; PT629, compound 10µM): 8 µg/mL
- MIC of Ciprofloxacin in the presence of the compound ([1]; PT629, compound 10µM): 0.5 µg/mL
- MIC of Ticarcillin in the presence of the compound ([1]; PT629, compound 10µM): 64 µg/mL
- MIC [1, 4]: 25 µg/mL and 62.5 µM
- decrease of MIC of ciprofloxacin ([2]; PA0-7H (overproduces MexEF), compound 10 µM): 4 times
- MIC of Amikacin in the presence of the compound ([2]; PA0-7H, compound 10µM): 64 µg/mL
- MIC of Ceftazidime in the presence of the compound ([2]; PA0-7H, compound 10µM): 1 µg/mL
- MIC of Ciprofloxacin in the presence of the compound ([2]; PA0-7H, compound 10µM): 1 µg/mL
- MIC of Ticarcillin in the presence of the compound ([2]; PA0-7H, compound 10µM): 4 µg/mL
- MIC [2, 4]: 25 µg/mL and 62.5 µM
- rank of efflux inhibition among compounds 1-4 and PAßN [3]: the most efficient
- IC50 ([3]; Pseudomonas aeruginosa, 2.5x10^8 cfu/mL, read-out: concentration needed to inhibit 50% of 1,2'DNA efflux): 31.2 µM
- inhibition at 31.25 µM ([3]; Pseudomonas aeruginosa, compound at 31.25μM): 60%
- efflux inhibition ([3]; compound at 15.6μM): fifty percent efflux inhibition
- efflux inhibition ([3]; compound at 125μM): completely abolished the transportation of dye
